Experimental data taken from patent publication US20040023974A1, “Cyclic sulfamide derivatives and methods of use” (priority 2002, published 2004).
Counter-ions that a name gives are not always drawn.

| SMILES | melting point [°C] |
| --- | --- |
| CCn1c(C)nc2cc(CN3CC(=O)NS3(=O)=O)ccc21 (as salt: TFA) [Example 11, 5-(1-Ethyl-2-methyl-1H-benzoimidazol-5-ylmethyl)-1,1-dioxo-1-1,2,5-thiadiazolidin-3-one] | 255 to 265 |
| O=C1CN(Cc2cccc(I)c2)S(=O)(=O)N1 [Example 4, 5-(3-Iodobenzyl)-1,1-dioxo-1,2,5-thiadiazolidin-3-one] | 101 to 103 |
| CCOC(=O)C(Cc1ccc(CN2CC(=O)NS2(=O)=O)cc1)(NC(C)=O)C(=O)OCC [Example 10-23, 2-Acetylamino-2-[4-(1,1,4-trioxo-1,2,5-thiadiazolidin-2-ylmethyl)-benzyl]-malonic acid diethyl ester] | 197 |
| Cc1nc2cc(CN3CC(=O)NS3(=O)=O)ccc2n1CCC(C)C [Example 12, 5-[2-Methyl-1-(3-methyl-butyl)-1H-benzoimidazol-5-ylmethyl]-1,1-dioxo-1-1,2,5-thiadiazolidin-3-one] | 70 to 75 |
| O=C1CN(c2ccc(CC3NC(=O)c4ccccc4NC3=O)cc2O)S(=O)(=O)N1 (centres unmarked) [Example 44, 3-[3-Hydroxy-4-(1,1,4-trioxo-[1,2,5]thiadiazolidin-2-yl)-benzyl]-3,4-dihydro-1H-benzo[1,4]diazepine-2,5-dione] | 180 |

Now from value to compound:

| melting point [°C] | SMILES |
| --- | --- |
| > 260 | COc1ccc(N2CC(=O)NS2(=O)=O)c(OC)c1.[K] |
| 70 to 90 | Cc1cc(OCC(=O)NCc2ccccc2)ccc1N1CC(=O)NS1(=O)=O [Example 43, N-Benzyl-2-[3-methyl-4-(1,1,4-trioxo-[1,2,5]thiadiazolidin-2-yl)-phenoxy]-acetamide] |
| 191 to 193 | O=C1CN(c2ccc(I)cc2)S(=O)(=O)N1 [Example 45, 5-(4-Iodo-phenyl)-1,1-dioxo-1,2,5-thiadiazolidin-3-one] |
